Holding throughout (assay type): functional
Assay [1] has as its system Streptococcus pneumoniae. The assay is described as follows: Antibacterial activity against erythromycin-resistant Streptococcus pneumoniae ERSP-2 expressing ermB and mef by the broth microdilution method. On the technique in general: In broth dilution the organism is exposed to a series of concentrations in liquid medium.
For assay [2], the system named is Staphylococcus epidermidis. The assay is described as follows: Antibacterial activity against methicillin-resistant Staphylococcus epidermidis MRSE-1 by the broth microdilution method.
Assay [3] deals with Staphylococcus aureus. The assay is described as follows: Antibacterial activity against methicillin-resistant Staphylococcus aureus BK2464 by the broth microdilution method.
The test system of assay [4] is Staphylococcus aureus. The assay is described as follows: Antibacterial activity against methicillin-susceptible Staphylococcus aureus ATCC 29213 by the broth microdilution method.
The subject of assay [5] is Streptococcus pyogenes. The assay is described as follows: Antibacterial activity against Streptococcus pyogenes ERSPy-1 expressing mef by the broth microdilution method.
For assay [6], the system named is Streptococcus pyogenes. The assay is described as follows: Antibacterial activity against erythromycin-resistant Streptococcus pyogenes 8902 expressing ermB by the broth microdilution method.
The test system of assay [7] is Streptococcus pyogenes. The assay is described as follows: Ratio of compound MIC to clarithromycin MIC for Streptococcus pyogenes ERSPy-1 expressing mef.
Assay [8] concerns Streptococcus pyogenes. The assay is described as follows: Ratio of compound MIC to clarithromycin MIC for erythromycin-resistant Streptococcus pyogenes 8902 expressing ermB.
Assay [9] deals with Streptococcus pneumoniae. The assay is described as follows: Ratio of compound MIC to clarithromycin MIC for erythromycin-resistant Streptococcus pneumoniae ERSP-2 expressing ermB and mef.

In brackets after ≈: the same amount, converted by molar mass. Bounds are passed on as bounds.

In general, MIC refers to the lowest concentration found to suppress growth. Low values mean a more susceptible organism, high ones a less susceptible organism. As to `CC[C@H]1OC(=O)[C@H](C)[C@@H](O[C@H]2C[C@@](C)(OC)[C@@H](O[C@@H]3O[C@H](CO)[C@@H](O)[C@H](O)[C@H]3O)[C@H](C)O2)[C@H](C)[C@@H](O[C@@H]2O[C@H](C)C[C@H](N(C)C)[C@H]2O)[C@](C)(OC)C[C@@H](C)C(=O)[C@H](C)[C@@H](O)[C@]1(C)O`, the MIC against Streptococcus pneumoniae [1] was 16 µg/mL (≈ 17.6 µM); in [2] it was 16 µg/mL (≈ 17.6 µM); against Staphylococcus aureus [3], above 16 µg/mL; in the assay with Staphylococcus aureus [4], above 16 µg/mL; with Streptococcus pyogenes [5], 16 µg/mL (≈ 17.6 µM); against Streptococcus pyogenes [6] it was 16 µg/mL (≈ 17.6 µM).

In the case of `CC[C@H]1OC(=O)[C@H](C)[C@@H](O[C@H]2C[C@@](C)(OC)[C@@H](O[C@@H]3O[C@H](CO)[C@@H](O)[C@H](O)[C@H]3OC(C)=O)[C@H](C)O2)[C@H](C)[C@@H](O[C@@H]2O[C@H](C)C[C@H](N(C)C)[C@H]2O)[C@](C)(OC)C[C@@H](C)C(=O)[C@H](C)[C@@H](O)[C@]1(C)O`, the MIC is 16 µg/mL (≈ 16.8 µM) against Streptococcus pneumoniae [1]; above 16 µg/mL in [2]; above 16 µg/mL against Staphylococcus aureus [3]; above 16 µg/mL with Staphylococcus aureus [4]; 16 µg/mL (≈ 16.8 µM) against Streptococcus pyogenes [5]; above 16 µg/mL in the assay with Streptococcus pyogenes [6].

On to `CC[C@H]1OC(=O)[C@H](C)[C@@H](O[C@H]2C[C@@](C)(OC)[C@@H](O[C@@H]3O[C@H](COC(=O)c4ccccc4)[C@@H](OC(=O)c4ccccc4)[C@H](OC(C)=O)[C@H]3OC(C)=O)[C@H](C)O2)[C@H](C)[C@@H](O[C@@H]2O[C@H](C)C[C@H](N(C)C)[C@H]2O)[C@](C)(OC)C[C@@H](C)C(=O)[C@H](C)[C@@H](O)[C@]1(C)O`, for which the MIC against Streptococcus pneumoniae [1] was 16 µg/mL (≈ 13.3 µM); in assay [2], 16 µg/mL (≈ 13.3 µM); in the assay on Staphylococcus aureus [3], above 16 µg/mL; in the assay with Staphylococcus aureus [4] it was above 16 µg/mL; in the assay with Streptococcus pyogenes [5] it was 8 µg/mL (≈ 6.65 µM); against Streptococcus pyogenes [6], 16 µg/mL (≈ 13.3 µM).

Take `CC[C@H]1OC(=O)[C@H](C)[C@@H](O[C@H]2C[C@@](C)(OC)[C@@H](O[C@@H]3O[C@H](COC(=O)c4ccccc4)[C@@H](O)[C@H](O)[C@H]3OC(C)=O)[C@H](C)O2)[C@H](C)[C@@H](O[C@@H]2O[C@H](C)C[C@H](N(C)C)[C@H]2O)[C@](C)(OC)C[C@@H](C)C(=O)[C@H](C)[C@@H](O)[C@]1(C)O`: the MIC in the assay with Streptococcus pneumoniae [1] is 8 µg/mL (≈ 7.57 µM); in assay [2], 16 µg/mL (≈ 15.1 µM); with Staphylococcus aureus [3], above 16 µg/mL; against Staphylococcus aureus [4], 16 µg/mL (≈ 15.1 µM); with Streptococcus pyogenes [5], 8 µg/mL (≈ 7.57 µM); in the assay with Streptococcus pyogenes [6] it was 16 µg/mL (≈ 15.1 µM).

With `CC[C@H]1OC(=O)[C@H](C)[C@@H](O[C@H]2C[C@@](C)(OC)[C@@H](O[C@H]3O[C@H](COC(C)=O)[C@@H](OC(=O)c4ccccc4)[C@H](OC(C)=O)[C@H]3OC(C)=O)[C@H](C)O2)[C@H](C)[C@@H](O[C@@H]2O[C@H](C)C[C@H](N(C)C)[C@H]2O)[C@](C)(OC)C[C@@H](C)C(=O)[C@H](C)[C@@H](O)[C@]1(C)O`, the minimum inhibitory concentration (MIC) was 16 µg/mL (≈ 14 µM) with Streptococcus pneumoniae [1]; 16 µg/mL (≈ 14 µM) in assay [2]; above 16 µg/mL in the assay with Staphylococcus aureus [3]; 16 µg/mL (≈ 14 µM) against Staphylococcus aureus [4]; 1 µg/mL (≈ 0.877 µM) in the assay on Streptococcus pyogenes [5]; 16 µg/mL (≈ 14 µM) against Streptococcus pyogenes [6].

For `CC[C@H]1OC(=O)[C@H](C)[C@@H](O[C@H]2C[C@@](C)(OC)[C@@H](O[C@@H]3O[C@H](CO)[C@@H](O[C@H]4O[C@@H](CO)[C@H](O)[C@@H](O)[C@@H]4O)[C@H](O)[C@H]3O)[C@H](C)O2)[C@H](C)[C@@H](O[C@@H]2O[C@H](C)C[C@H](N(C)C)[C@H]2O)[C@](C)(OC)C[C@@H](C)C(=O)[C@H](C)[C@@H](O)[C@]1(C)O`, the MIC is 16 µg/mL (≈ 14.9 µM) in the assay with Streptococcus pneumoniae [1]; above 16 µg/mL in assay [2]; above 16 µg/mL in the assay on Staphylococcus aureus [3]; above 16 µg/mL in the assay on Staphylococcus aureus [4]; above 16 µg/mL in the assay on Streptococcus pyogenes [5]; above 16 µg/mL against Streptococcus pyogenes [6].

In the case of `CC[C@H]1OC(=O)[C@H](C)[C@@H](O[C@H]2C[C@@](C)(OC)[C@@H](O[C@@H]3O[C@H](CO)[C@@H](O)[C@H](O)[C@H]3O)[C@H](C)O2)[C@H](C)[C@@H](O[C@@H]2O[C@H](C)C[C@H](N(C)C)[C@H]2O)[C@](C)(OC)C[C@@H](C)C(=O)[C@H](C)[C@H]2N(CCCCn3cnc4cccnc43)C(=O)O[C@]12C`, the MIC is 8 µg/mL (≈ 7.22 µM) in the assay on Streptococcus pneumoniae [1]; above 16 µg/mL in assay [2]; above 16 µg/mL in the assay with Staphylococcus aureus [3]; above 16 µg/mL against Staphylococcus aureus [4]; 16 µg/mL (≈ 14.4 µM) with Streptococcus pyogenes [5]; 16 µg/mL (≈ 14.4 µM) against Streptococcus pyogenes [6].

With `CC[C@H]1OC(=O)[C@H](C)[C@@H](O[C@H]2C[C@@](C)(OC)[C@@H](O[C@@H]3O[C@@H]4COC(c5ccccc5)O[C@H]4[C@H](O)[C@H]3O)[C@H](C)O2)[C@H](C)[C@@H](O[C@@H]2O[C@H](C)C[C@H](N(C)C)[C@H]2O)[C@](C)(OC)C[C@@H](C)C(=O)[C@H](C)[C@H]2N(CCCCn3cnc4cccnc43)C(=O)O[C@]12C` (stereo not given in full), the Ratio with Streptococcus pyogenes [7] was determined as 4; in the assay on Streptococcus pyogenes [8] it was 8; in the assay with Streptococcus pneumoniae [9] it was 8. Moreover, the MIC against Streptococcus pneumoniae [1] was 2 µg/mL (≈ 1.67 µM); in assay [2], 4 µg/mL (≈ 3.34 µM); in the assay on Staphylococcus aureus [3] it was above 16 µg/mL; against Staphylococcus aureus [4], 4 µg/mL (≈ 3.34 µM); in the assay with Streptococcus pyogenes [5] it was 0.5 µg/mL (≈ 0.418 µM); with Streptococcus pyogenes [6] it was 4 µg/mL (≈ 3.34 µM).

Regarding `CC[C@H]1OC(=O)[C@H](C)[C@@H](O[C@H]2C[C@@](C)(OC)[C@@H](O[C@@H]3O[C@H](CO)[C@@H](O)[C@H](O)[C@H]3O)[C@H](C)O2)[C@H](C)[C@@H](O[C@@H]2O[C@H](C)C[C@H](N(C)C)[C@H]2O)[C@](C)(OC)C[C@@H](C)C(=O)[C@H](C)[C@H]2N(CCCCn3cnc4ncccc43)C(=O)O[C@]12C`, the MIC against Streptococcus pneumoniae [1] was 8 µg/mL (≈ 7.22 µM); in assay [2], above 16 µg/mL; in the assay with Staphylococcus aureus [3], above 16 µg/mL; in the assay with Staphylococcus aureus [4], above 16 µg/mL; against Streptococcus pyogenes [5], 8 µg/mL (≈ 7.22 µM); in the assay on Streptococcus pyogenes [6], 16 µg/mL (≈ 14.4 µM).

For the molecule `CC[C@H]1OC(=O)[C@H](C)[C@@H](O[C@H]2C[C@@](C)(OC)[C@@H](O[C@@H]3O[C@@H]4COC(c5ccccc5)O[C@H]4[C@H](O)[C@H]3O)[C@H](C)O2)[C@H](C)[C@@H](O[C@@H]2O[C@H](C)C[C@H](N(C)C)[C@H]2O)[C@](C)(OC)C[C@@H](C)C(=O)[C@H](C)[C@H]2N(CCCCn3cnc4ncccc43)C(=O)O[C@]12C` (stereo not given in full), the MIC is 1 µg/mL (≈ 0.836 µM) in the assay with Streptococcus pneumoniae [1]; 4 µg/mL (≈ 3.34 µM) in assay [2]; above 16 µg/mL against Staphylococcus aureus [3]; 4 µg/mL (≈ 3.34 µM) against Staphylococcus aureus [4]; 2 µg/mL (≈ 1.67 µM) with Streptococcus pyogenes [5]; 8 µg/mL (≈ 6.69 µM) against Streptococcus pyogenes [6].

With `CC[C@H]1OC(=O)[C@H](C)[C@@H](O[C@H]2C[C@@](C)(OC)[C@@H](O)[C@H](C)O2)[C@H](C)[C@@H](O[C@@H]2O[C@H](C)C[C@H](N(C)C)[C@H]2O)[C@](C)(OC)C[C@@H](C)C(=O)[C@H](C)[C@@H](O)[C@]1(C)O` [CLARITHROMYCIN], the MIC is 16 µg/mL (≈ 21.4 µM) in the assay with Streptococcus pneumoniae [1]; 16 µg/mL (≈ 21.4 µM) in assay [2]; above 32 µg/mL against Staphylococcus aureus [3]; 0.25 µg/mL (≈ 0.334 µM) in the assay on Staphylococcus aureus [4]; 2 µg/mL (≈ 2.67 µM) in the assay on Streptococcus pyogenes [5]; 32 µg/mL (≈ 42.8 µM) in the assay with Streptococcus pyogenes [6].

For `CC[C@H]1OC(=O)[C@H](C)C(=O)[C@H](C)[C@@H](O[C@@H]2O[C@H](C)C[C@H](N(C)C)[C@H]2O)[C@](C)(OC)C[C@@H](C)C(=O)[C@H](C)[C@H]2N(CCCCn3cnc(-c4cccnc4)c3)C(=O)O[C@]12C` [TELITHROMYCIN], the MIC against Streptococcus pneumoniae [1] was 0.125 µg/mL (≈ 0.154 µM); in [2] it was 0.125 µg/mL (≈ 0.154 µM); against Staphylococcus aureus [3] it was above 32 µg/mL; with Staphylococcus aureus [4] it was 0.125 µg/mL (≈ 0.154 µM); with Streptococcus pyogenes [5], 0.25 µg/mL (≈ 0.308 µM); in the assay on Streptococcus pyogenes [6], 0.25 µg/mL (≈ 0.308 µM).
